Assays:
egg white albumin = molecular target: T1, egg white albumin (Gallus gallus, UniProt P01012); assay: Affinity test by circular dichroism (CD) titration with albumin; format: binding; conditions: dye preparation in Ficoll 4% in a phosphate buffer (sterilised)
T1 construct: from tissue; host or cells: egg white
T1 sequence (P01012 1-386): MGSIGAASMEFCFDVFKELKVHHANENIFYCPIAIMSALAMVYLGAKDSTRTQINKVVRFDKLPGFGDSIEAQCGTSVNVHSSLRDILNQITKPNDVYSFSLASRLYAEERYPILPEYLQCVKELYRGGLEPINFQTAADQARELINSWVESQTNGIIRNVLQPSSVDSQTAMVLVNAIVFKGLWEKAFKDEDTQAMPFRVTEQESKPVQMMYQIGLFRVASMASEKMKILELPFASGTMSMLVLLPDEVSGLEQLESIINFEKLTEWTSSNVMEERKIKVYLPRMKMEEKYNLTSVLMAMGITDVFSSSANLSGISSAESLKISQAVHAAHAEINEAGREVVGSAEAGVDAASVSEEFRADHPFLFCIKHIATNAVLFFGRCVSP
Experimental: In fact, even in this sector, one of the most used dyes today is BBG. However, the Applicant has realised that although it can dye proteins, BBG actually has a relatively low affinity with the self-same proteins. […] It should be noticed that, to carry out the tests, the commercial BBG with a purity of 80% was preliminarily purified and the CD spectra were measured in the 800-400 nm region in the presence of increasing quantities of albumin. Finally, in the known way, the value of the association constant was determined using a non-linear regression of the intensity of the dichroic signal expressed in ΔA (AL-AR, where AL and AR respectively indicate the absorbency of the preparation as regards the two circularly polarized light waves used for the circular dichroism study, the left wave and the right wave) depending on the concentration of the egg white albumin, used as a reference. However, on this point what is indicated in the subsequent Affinity Tests section should also be considered. […]
Affinity was determined by means of CD (circular dichroism) spectroscopy. The CD spectra were measured in the 800-400 nm region in the presence of increasing quantities of egg white albumin which, as is known, for analyses of this type is commonly considered to be representative of proteins in general. […]

[1] = equal to 0.03% w/v; DIN EN ISO 10993; cited from earlier work

CCOc1ccc(Nc2ccc(/C(=C3C=C/C(=[N+](/CC)Cc4cccc(S(=O)(=O)[O-])c4)C=C/3C)c3ccc(N(CC)Cc4cccc(S(=O)(=O)O)c4)cc3C)cc2)cc1 [BBG-250, Brilliant Blue G 250]
association constant Ka (egg white albumin): approximately 60,000 M^−1
concentration at which considered not to be cytotoxic [1]: ≤ 0.3 g/I

Source: patent US20180104361A1, “DYE MOLECULE AND DYE PREPARATIONS, IN PARTICULAR FOR USE IN SURGICAL METHODS OF OPHTHALMIC SURGERY AND FOR DYEING PROTEINS” (AL.CHI.MI.A. S.R.L., priority 2015, published 2018)
